Data from patent US7273885B2, “Inhibitors of serine proteases, particularly HCV NS3-NS4A protease” (Vertex Pharmaceuticals Incorporated, priority 2002, dated 2007).
Like-named read-outs stand apart in the source and are kept apart here. *1 amine or outer side, *2 acyl side, *3 side chain or, on linkers, in order; H or OH if unused. Where a SMILES comes first, the peptide text is derived from it. [ ]: non-standard residue; d: D form. The star is where a group is joined. Oic = O=C(O)[C@@H]1C[C@@H]2CCCC[C@@H]2N1; NH(1S-phenylethyl) = C[C@H](N*)c1ccccc1; Isopropoxycarbonyl = CC(C)OC(=O)*; Pyrazinecarbonyl = O=C(c1cnccn1)*; X1 = CCCC(N[*:1])C(=O)C(=O)[*:2]; Chg = N[C@H](C(=O)O)C1CCCCC1; Tle = CC(C)(C)[C@H](N)C(=O)O; Dap = NC[C@H](N)C(=O)O; NHcPr = C1CC1N*; Moc = COC(=O)*

Key:
[1] = target: HCV NS3-NS4A protease (tNS3 with KK4A) (Hepatitis C virus genotype 1a, UniProt P27958); assay: HCV Ki assay (HPLC microbore separation of 5AB substrate and products); assay type: biochemical
Procedure: HPLC Microbore Method for Separation of 5AB Substrate and Products
• Substrate: • NH2-Glu-Asp-Val-Val-(alpha)Abu-Cys-Ser-Met-Ser-Tyr-COOH
A stock solution of 20 mM 5AB (or concentration of your choice) was made in DMSO w/ 0.2M DTT. This was stored in aliquots at −20 C.
Buffer: 50 mM HEPES, pH 7.8; 20% glycerol; 100 mM NaCl
Total assay volume was 100 μL
The buffer, KK4A, DTT, and tNS3 were combined; distributed 78 μL each into wells of 96 well plate. This was incubated at 30 C for ˜5–10 min.
2.5 μL of appropriate concentration of test compound was dissolved in DMSO (DMSO only for control) and added to each well. This was incubated at room temperature for 15 min.
Initiated reaction by addition of 20 μL of 250 μM 5AB substrate (25 μM concentration is equivalent or slightly lower than the Km for 5AB).
Incubated for 20 min at 30 C.
Terminated reaction by addition of 25 μL of 10% TFA
Transferred 120 μL aliquots to HPLC vials
Separated SMSY product from substrate and KK4A by the following method:
Microbore Separation Method:
Instrumentation: Agilent 1100
• Degasser G1322A • Binary pump G1312A • Autosampler G1313A • Column thermostated chamber G1316A • Diode array detector G1315A Column:
Phenomenex Jupiter; 5 micron C18; 300 angstroms; 150×2 mm; P/O 00F-4053-B0 • Column thermostat: 40 C • Injection volume: 100 μL • Solvent A=HPLC grade water+0.1% TFA • Solvent B=HPLC grade acetonitrile+0.1% TFA
• Stop time: 17 min • Post-run time: 10 min.

[2] = system: Cells containing hepatitis C virus (HCV) replicon; assay: HCV replicon cell assay (Taqman RT-PCR of HCV RNA); assay type: cell-based
Procedure: HCV Replicon Cell Assay Protocol
Cells containing hepatitis C virus (HCV) replicon were maintained in DMEM containing 10% fetal bovine serum (FBS), 0.25 mg per ml of G418, with appropriate supplements (media A).
On day 1, replicon cell monolayer was treated with a trypsin:EDTA mixture, removed, and then media A was diluted into a final concentration of 100,000 cells per ml wit. 10,000 cells in 100 ul were plated into each well of a 96-well tissue culture plate, and cultured overnight in a tissue culture incubator at 37° C.
On day 2, compounds (in 100% DMSO) were serially diluted into DMEM containing 2% FBS, 0.5% DMSO, with appropriate supplements (media B). The final concentration of DMSO was maintained at 0.5% throughout the dilution series.
Media on the replicon cell monolayer was removed, and then media B containing various concentrations of compounds was added. Media B without any compound was added to other wells as no compound controls.
Cells were incubated with compound or 0.5% DMSO in media B for 48 hours in a tissue culture incubator at 37° C. At the end of the 48-hour incubation, the media was removed, and the replicon cell monolayer was washed once with PBS and stored at −80° C. prior to RNA extraction.
Culture plates with treated replicon cell monolayers were thawed, and a fixed amount of another RNA virus, such as Bovine Viral Diarrhea Virus (BVDV) was added to cells in each well. RNA extraction reagents (such as reagents from RNeasy kits) were added to the cells immediately to avoid degradation of RNA. Total RNA was extracted according the instruction of manufacturer with modification to improve extraction efficiency and consistency. Finally, total cellular RNA, including HCV replicon RNA, was eluted and stored at −80° C. until further processing.
A Taqman real-time RT-PCR quantification assay was set up with two sets of specific primers and probe. One was for HCV and the other was for BVDV. Total RNA extractants from treated HCV replicon cells was added to the PCR reactions for quantification of both HCV and BVDV RNA in the same PCR well. Experimental failure was flagged and rejected based on the level of BVDV RNA in each well. The level of HCV RNA in each well was calculated according to a standard curve run in the same PCR plate. The percentage of inhibition or decrease of HCV RNA level due to compound treatment was calculated using the DMSO or no compound control as 0% of inhibition. The IC50 (concentration at which 50% inhibition of HCV RNA level is observed) was calculated from the titration curve of any given compound.

[3] = 50% inhibition of HCV RNA level, 48-hour incubation, HCV replicon cells, read-out: IC50

HCV NS3-NS4A protease (tNS3 with KK4A), sequence (P27958 1027-1208): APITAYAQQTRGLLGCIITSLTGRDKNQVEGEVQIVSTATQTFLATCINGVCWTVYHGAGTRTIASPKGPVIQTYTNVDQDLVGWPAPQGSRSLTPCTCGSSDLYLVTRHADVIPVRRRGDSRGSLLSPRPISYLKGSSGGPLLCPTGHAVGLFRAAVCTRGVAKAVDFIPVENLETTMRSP

Row | Structure (SMILES) | Ki [1] | IC50 ([2]; 48 h) | IC50 [2, 3]
1 | CCCC(NC(=O)[C@@H]1C[C@@H]2CCCC[C@@H]2N1C(=O)[C@@H](NC(=O)[C@@H](NC(=O)c1cnccn1)C(C)C)C(C)C)C(=O)C(=O)N[C@@H](Cc1ccccc1)C(=O)O (stereo partly shown) [Compound 1a] (Pyrazinecarbonyl-VV[Oic][X1]F-OH) | < 500 nM |  | 
2 | CCCC(NC(=O)[C@@H]1C[C@@H]2CCCC[C@@H]2N1C(=O)[C@@H](NC(=O)[C@@H](NC(=O)c1cnccn1)C(C)C)C(C)C)C(=O)C(=O)NC1CC1 (stereo partly shown) [Compound 2a] | 500 to 1000 nM |  | 
3 | CCCC(NC(=O)[C@@H]1C[C@@H]2CCCC[C@@H]2N1C(=O)[C@@H](NC(=O)[C@@H](NC(=O)c1cnccn1)C1CCCCC1)C(C)C)C(=O)C(=O)NC1CC1 (stereo partly shown) [Compound 3a] | < 500 nM | 1000 to 5000 nM | 
4 | CCCC(NC(=O)[C@@H]1C[C@@H]2CCCC[C@@H]2N1C(=O)[C@@H](NC(=O)[C@@H](NC(=O)c1cnccn1)C1CCCCC1)C(C)(C)C)C(=O)C(=O)NC1CC1 (stereo partly shown) [Compound 4a] | < 500 nM |  | 500 to 1000 nM
5 | CCCC(NC(=O)[C@@H]1C[C@@H]2CCCC[C@@H]2N1C(=O)[C@@H](NC(=O)[C@@H](NC(=O)[C@H](C)NC(=O)OC(C)C)C1CCCCC1)C(C)C)C(=O)C(=O)NC1CC1 (stereo partly shown) [Compound 5a] (Isopropoxycarbonyl-A[Chg]V[Oic][X1]-NHcPr) | < 500 nM |  | 
6 | CCCC(NC(=O)[C@@H]1C[C@@H]2CCCC[C@@H]2N1C(=O)[C@@H](NC(=O)[C@@H](NC(=O)[C@H](C)NC(=O)OC(C)C)C1CCCCC1)C(C)(C)C)C(=O)C(=O)NC1CC1 (stereo partly shown) [Compound 6a] (Isopropoxycarbonyl-A[Chg][Tle][Oic][X1]-NHcPr) | < 500 nM |  | 
7 | CCCC(NC(=O)[C@@H]1C[C@@H]2CCCC[C@@H]2N1C(=O)[C@@H](NC(=O)[C@@H](NC(=O)c1cnccn1)C1CCCCC1)C(C)(C)C)C(=O)C(=O)N[C@@H](C)c1ccccc1 (stereo partly shown) [Compound 7a] | < 500 nM |  | 
8 | CCCC(NC(=O)[C@@H]1C[C@@H]2CCCC[C@@H]2N1C(=O)[C@@H](NC(=O)[C@@H](NC(=O)C1CSC(=O)N1)C1CCCCC1)C(C)(C)C)C(=O)C(=O)N[C@@H](C)c1ccccc1 (stereo partly shown) [Compound 8a] | < 500 nM |  | 
9 | CCCC(NC(=O)[C@@H]1C[C@@H]2CCCC[C@@H]2N1C(=O)[C@@H](NC(=O)[C@@H](NC(=O)[C@H](CNC(=O)OC)NC(=O)OC)C1CCCCC1)C(C)(C)C)C(=O)C(=O)N[C@@H](C)c1ccccc1 (stereo partly drawn) [Compound 9a] (Moc-[Dap](Moc)[Chg][Tle][Oic][X1]-{NH(1S-phenylethyl)}) | < 500 nM |  | < 500 nM
10 | CCC[C@H](NC(=O)[C@@H]1C[C@@H]2CCCC[C@@H]2N1C(=O)[C@@H](NC(=O)[C@@H](NC(=O)c1cnccn1)C1CCCCC1)C(C)(C)C)C(=O)C(=O)NC1CC1 [Compound 10a] | < 500 nM |  | 500 to 1000 nM
11 | CCC[C@H](NC(=O)[C@@H]1C[C@@H]2CCCC[C@@H]2N1C(=O)[C@@H](NC(=O)[C@@H](NC(=O)c1ccc[nH]1)C1CCCCC1)C(C)(C)C)C(=O)C(=O)NC1CC1 [Compound 11a] | < 500 nM |  | < 500 nM
12 | CCC[C@H](NC(=O)[C@@H]1C[C@@H]2CCCC[C@@H]2N1C(=O)[C@@H](NC(=O)[C@@H](NC(=O)c1cc([N+](=O)[O-])c[nH]1)C1CCCCC1)C(C)(C)C)C(=O)C(=O)NC1CC1 [Compound 12a] | < 500 nM |  | < 500 nM
13 | CCC[C@H](NC(=O)[C@@H]1C[C@@H]2CCCC[C@@H]2N1C(=O)[C@@H](NC(=O)[C@@H](NC(=O)c1[nH]ncc1[N+](=O)[O-])C1CCCCC1)C(C)(C)C)C(=O)C(=O)NC1CC1 [Compound 13a] | < 500 nM |  | 500 to 1000 nM
14 | CCC[C@H](NC(=O)[C@@H]1C[C@@H]2CCCC[C@@H]2N1C(=O)[C@@H](NC(=O)[C@@H](NC(=O)c1cc([N+](=O)[O-])n[nH]1)C1CCCCC1)C(C)(C)C)C(=O)C(=O)NC1CC1 [Compound 14a] | < 500 nM |  | 1000 to 5000 nM
